Assay results as given in PubChem BioAssay AID330 (DTP/NCI, 2004).
Where “and” joins values, the source holds several entries; their conditions need not be identical. Equal entries are not always repeated. Toxic doses and inconclusive results are not listed. How the source made its calls: active means survival T/C of 150% or more; inactive means T/C below 125% in these data.

Tested on: P388 leukemia ip, CD2F1 mice, survival T/C
Assay: NCI In Vivo Anticancer Drug Screen. Data for tumor model P388 Leukemia (intraperitoneal) in CD2F1 (CDF1) mice
Conditions: endpoint: median survival time, higher = longer survival
How it was run: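 Mice carrying the transplanted tumor received test compound or vehicle. Survival was recorded in each group, and the value is the treated-group measurement divided by that of the vehicle-treated control group.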

[1] = dose: 50.0 mg/kg/injection, schedule: Q01DX009 (ip), vehicle: saline with Tween-80
[2] = dose: 100.0 mg/kg/injection, schedule: Q01DX009 (ip), vehicle: saline with Tween-80
[3] = dose: 200.0 mg/kg/injection, schedule: Q01DX009 (ip), vehicle: saline with Tween-80
[4] = dose: 50.0 mg/kg/injection, schedule: Q01DX009 (ip), vehicle: saline
[5] = dose: 30.0 mg/kg/injection, schedule: Q01DX005 (ip), vehicle: saline with Tween-80
[6] = dose: 60.0 mg/kg/injection, schedule: Q01DX005 (ip), vehicle: saline with Tween-80
[7] = dose: 120.0 mg/kg/injection, schedule: Q01DX005 (ip), vehicle: saline with Tween-80
[8] = dose: 50.0 mg/kg/injection, schedule: Q01DX005 (ip), vehicle: saline with Tween-80
[9] = dose: 100.0 mg/kg/injection, schedule: Q01DX005 (ip), vehicle: saline with Tween-80
[10] = dose: 200.0 mg/kg/injection, schedule: Q01DX005 (ip), vehicle: saline with Tween-80
[11] = dose: 50.0 mg/kg/injection, schedule: Q01DX005 (ip), vehicle: Klucel (hydroxypropylcellulose) (HPC)
[12] = dose: 100.0 mg/kg/injection, schedule: Q01DX005 (ip), vehicle: Klucel (hydroxypropylcellulose) (HPC)
[13] = dose: 200.0 mg/kg/injection, schedule: Q01DX005 (ip), vehicle: Klucel (hydroxypropylcellulose) (HPC)
[14] = dose: 50.0 mg/kg/injection, schedule: Q01DX009 (ip), vehicle: Klucel (hydroxypropylcellulose) (HPC)
[15] = dose: 100.0 mg/kg/injection, schedule: Q01DX009 (ip), vehicle: Klucel (hydroxypropylcellulose) (HPC)
[16] = dose: 200.0 mg/kg/injection, schedule: Q01DX009 (ip), vehicle: Klucel (hydroxypropylcellulose) (HPC)
[17] = dose: 15.0 mg/kg/injection, schedule: Q01DX005 (ip), vehicle: saline with Tween-80
[18] = dose: 240.0 mg/kg/injection, schedule: Q01DX005 (ip), vehicle: saline with Tween-80
[19] = dose: 6.25 mg/kg/injection, schedule: Q01DX005 (ip), vehicle: saline with Tween-80

Measured: T/C

CCCCCCCC/C=C\CCCCCCCCCCCC(=O)OCCN(CCOC(=O)CCCCCCCCCCC/C=C\CCCCCCCC)C(=O)c1ccccc1
inactive: [1] 106 % of control | [2] 116 % of control | [3] 116 % of control

CCCCCCCCCCCCCCCc1cccc(OC)c1C(=O)OC
inactive: dose: 20.0 mg/kg/injection, schedule: Q01DX009 (ip), vehicle: saline 109 % of control | dose: 40.0 mg/kg/injection, schedule: Q01DX009 (ip), vehicle: saline 106 % of control | dose: 80.0 mg/kg/injection, schedule: Q01DX009 (ip), vehicle: saline 104 % of control

NCC=C1C2CC3CC(C2)CC1C3
inactive: dose: 6.25 mg/kg/injection, schedule: Q01DX009 (ip), vehicle: saline 105 % of control and 107 % of control and 120 % of control | dose: 12.5 mg/kg/injection, schedule: Q01DX009 (ip), vehicle: saline 107 % of control (2×) and 117 % of control | dose: 25.0 mg/kg/injection, schedule: Q01DX009 (ip), vehicle: saline 111 % of control and 94 % of control | [4] 103 % of control

COc1ccc2oc3c(ccc[n+]3C)c(=O)c2c1
inactive: [5] 107 % of control | [6] 120 % of control | [7] 107 % of control

O=C(O)C1C=CC2OC2C1C(=O)O (configuration not stated)
inactive: dose: 100.0 mg/kg/injection, schedule: Q01DX001 (ip), vehicle: Klucel (hydroxypropylcellulose) (HPC) 87 % of control | dose: 200.0 mg/kg/injection, schedule: Q01DX001 (ip), vehicle: Klucel (hydroxypropylcellulose) (HPC) 92 % of control | dose: 400.0 mg/kg/injection, schedule: Q01DX001 (ip), vehicle: Klucel (hydroxypropylcellulose) (HPC) 93 % of control

CC(=O)NCc1cc([N+](=O)[O-])ccc1O
inactive: [8] 101 % of control | [9] 94 % of control | [10] 99 % of control

C/C(=N\N=C(N)N)c1ccc(-c2ccccc2)cc1
inactive: dose: 25.0 mg/kg/injection, schedule: Q04DX002 (ip), vehicle: saline with Tween-80 111 % of control | dose: 50.0 mg/kg/injection, schedule: Q04DX002 (ip), vehicle: saline with Tween-80 109 % of control

CCOC(=O)/C=C1/SC(N2CCCCC2)C(=O)N1C (configuration not stated)
inactive: [4] 100 % of control | dose: 100.0 mg/kg/injection, schedule: Q01DX009 (ip), vehicle: saline 104 % of control | dose: 200.0 mg/kg/injection, schedule: Q01DX009 (ip), vehicle: saline 100 % of control

COC(=O)[C@H]1[C@H]2C[C@@H]3c4[nH]c5cc(OC)ccc5c4CCN3C[C@H]2C[C@@H](OC(=O)CC(C)=O)[C@@H]1OC
inactive: [8] 95 % of control | [9] 91 % of control | [10] 88 % of control

O=[N+]([O-])/C=C/c1cc2c(cc1O)OCO2
inactive: dose: 75.0 mg/kg/injection, schedule: Q01DX009 (ip), vehicle: Klucel (hydroxypropylcellulose) (HPC) 115 % of control | dose: 150.0 mg/kg/injection, schedule: Q01DX009 (ip), vehicle: Klucel (hydroxypropylcellulose) (HPC) 101 % of control | dose: 300.0 mg/kg/injection, schedule: Q01DX009 (ip), vehicle: Klucel (hydroxypropylcellulose) (HPC) 115 % of control

C/C(=C/OS(=O)(=O)C(F)(F)F)c1ccccc1
inactive: dose: 50.0 mg/kg/injection, schedule: Q01DX009 (ip), vehicle: olive oil, sesame oil, peanut oil 105 % of control | dose: 100.0 mg/kg/injection, schedule: Q01DX009 (ip), vehicle: olive oil, sesame oil, peanut oil 116 % of control | dose: 200.0 mg/kg/injection, schedule: Q01DX009 (ip), vehicle: olive oil, sesame oil, peanut oil 87 % of control

COC(=O)c1cc(-c2ccc(OC)cc2)[nH]c(=O)c1C#N
inactive: [6] 100 % of control | [7] 91 % of control

C=CCNc1ncnc2c1cnn2C
inactive: dose: 50.0 mg/kg/injection, schedule: Q04DX003 (ip), vehicle: saline with Tween-80 104 % of control | dose: 100.0 mg/kg/injection, schedule: Q04DX003 (ip), vehicle: saline with Tween-80 104 % of control

c1ccc(CCc2ccnc3c2ccc2ccccc23)cc1
inactive: dose: 25.0 mg/kg/injection, schedule: Q04DX003 (ip), vehicle: Klucel (hydroxypropylcellulose) (HPC) 112 % of control | dose: 50.0 mg/kg/injection, schedule: Q04DX003 (ip), vehicle: Klucel (hydroxypropylcellulose) (HPC) 99 % of control | dose: 100.0 mg/kg/injection, schedule: Q04DX003 (ip), vehicle: Klucel (hydroxypropylcellulose) (HPC) 99 % of control

O=C(Nc1cccc(Cl)c1)OCC#CCCl
inactive: dose: 50.0 mg/kg/injection, schedule: Q01DX005 (ip), vehicle: saline + Tween-80 + alcohol 100 % of control | dose: 100.0 mg/kg/injection, schedule: Q01DX005 (ip), vehicle: saline + Tween-80 + alcohol 107 % of control | dose: 200.0 mg/kg/injection, schedule: Q01DX005 (ip), vehicle: saline + Tween-80 + alcohol 108 % of control

CN=C(NC#N)NCCSCc1nc[nH]c1C
inactive: dose: 25.0 mg/kg/injection, schedule: Q01DX005 (ip), vehicle: Klucel (hydroxypropylcellulose) (HPC) 102 % of control | [11] 93 % of control | [12] 93 % of control | [13] 102 % of control | dose: 400.0 mg/kg/injection, schedule: Q01DX005 (ip), vehicle: Klucel (hydroxypropylcellulose) (HPC) 93 % of control

CNC(=O)OCc1c(COC(=O)NC)c(C(F)(F)F)n2c1CCC2
inactive: [14] 117 % of control | [15] 116 % of control

CCN(CC)CCN1C(=O)CN=C(c2ccccn2)c2cc(Cl)ccc21
inactive: [1] 100 % of control | [2] 95 % of control | [3] 100 % of control

O=C1/C(=C/c2ccc(/C=C3\CCc4ccccc4C3=O)cc2)CCc2ccccc21
inactive: [14] 102 % of control | [15] 99 % of control | [16] 101 % of control

O=C(Nc1ccc(Cl)cc1)Nc1nnc(COc2ccc(Cl)c(Cl)c2)o1
inactive: [17] 87 % of control and 90 % of control | [5] 90 % of control | [6] 89 % of control and 93 % of control | [7] 98 % of control | [18] 91 % of control

COC(=O)c1cc(O)c2c(c1C(=O)OC)C[C@H]1[C@@H]3CCC4=CC(=O)CC[C@]4(C)[C@H]3CC[C@]21C
inactive: dose: 1.5 mg/kg/injection, schedule: Q01DX005 (ip), vehicle: saline with Tween-80 93 % of control | dose: 3.0 mg/kg/injection, schedule: Q01DX005 (ip), vehicle: saline with Tween-80 91 % of control | [19] 92 % of control | [10] 86 % of control

O=C(Nc1ccc(Cl)c(Cl)c1)C1C(=O)C(=O)N(c2ccc(Cl)c(Cl)c2)C1=O (configuration not stated)
inactive: [14] 97 % of control | [6] 101 % of control | [15] 109 % of control | [7] 100 % of control | [16] 103 % of control | [18] 103 % of control

CCCn1c2c(c3ccccc3c1=O)C(=O)c1ccccc1-2
inactive: [19] 95 % of control | dose: 12.5 mg/kg/injection, schedule: Q01DX005 (ip), vehicle: saline with Tween-80 88 % of control | dose: 25.0 mg/kg/injection, schedule: Q01DX005 (ip), vehicle: saline with Tween-80 93 % of control

O=C1CCC(c2nc(=S)[nH][nH]2)N1Cc1ccccc1 (configuration not stated)
inactive: [6] 101 % of control | [7] 102 % of control | [18] 101 % of control

NC1=C(O)C(=O)C2(O1)C(=O)Nc1ccccc12 (configuration not stated)
inactive: [11] 100 % of control | [12] 100 % of control | [13] 106 % of control

COC(=O)c1c(C)oc(C)c1-c1ccc(OCc2ccccc2)c(OC)c1
inactive: dose: 60.0 mg/kg/injection, schedule: Q01DX005 (ip), vehicle: Klucel (hydroxypropylcellulose) (HPC) 114 % of control | dose: 120.0 mg/kg/injection, schedule: Q01DX005 (ip), vehicle: Klucel (hydroxypropylcellulose) (HPC) 98 % of control | dose: 240.0 mg/kg/injection, schedule: Q01DX005 (ip), vehicle: Klucel (hydroxypropylcellulose) (HPC) 94 % of control

O=C1CS[C@@H]2C(=O)CCCC2C1 (some centres not stated)
inactive: [8] 98 % of control | [9] 98 % of control | [10] 92 % of control

FC(F)(F)C(F)(F)C(F)(F)C(F)(F)C(F)(F)C(F)(F)C[CH2][Sn]([Br])([Br])[CH2]CC(F)(F)C(F)(F)C(F)(F)C(F)(F)C(F)(F)C(F)(F)F
inactive: [6] 109 % of control | [7] 105 % of control | [18] 108 % of control

Cc1cccc(C)c1Nc1nnc(-c2ccccc2)s1
inactive: [17] 104 % of control | [5] 103 % of control | [6] 94 % of control
